What follows are compounds tested against T1, AHR (Homo sapiens, UniProt P35869) (assay: DRE-Luciferase Reporter Assay, HepG2, agonist). Conditions: HepG2 cells, agonist mode, Table 2, read-out: DRE-Luc HepG2 - Agonist: Average EC50.
T1 construct: endogenous in cells; host or cells: HepG2 (human), DRE-luciferase reporter stably or transiently transfected
T1 sequence (P35869 11-848): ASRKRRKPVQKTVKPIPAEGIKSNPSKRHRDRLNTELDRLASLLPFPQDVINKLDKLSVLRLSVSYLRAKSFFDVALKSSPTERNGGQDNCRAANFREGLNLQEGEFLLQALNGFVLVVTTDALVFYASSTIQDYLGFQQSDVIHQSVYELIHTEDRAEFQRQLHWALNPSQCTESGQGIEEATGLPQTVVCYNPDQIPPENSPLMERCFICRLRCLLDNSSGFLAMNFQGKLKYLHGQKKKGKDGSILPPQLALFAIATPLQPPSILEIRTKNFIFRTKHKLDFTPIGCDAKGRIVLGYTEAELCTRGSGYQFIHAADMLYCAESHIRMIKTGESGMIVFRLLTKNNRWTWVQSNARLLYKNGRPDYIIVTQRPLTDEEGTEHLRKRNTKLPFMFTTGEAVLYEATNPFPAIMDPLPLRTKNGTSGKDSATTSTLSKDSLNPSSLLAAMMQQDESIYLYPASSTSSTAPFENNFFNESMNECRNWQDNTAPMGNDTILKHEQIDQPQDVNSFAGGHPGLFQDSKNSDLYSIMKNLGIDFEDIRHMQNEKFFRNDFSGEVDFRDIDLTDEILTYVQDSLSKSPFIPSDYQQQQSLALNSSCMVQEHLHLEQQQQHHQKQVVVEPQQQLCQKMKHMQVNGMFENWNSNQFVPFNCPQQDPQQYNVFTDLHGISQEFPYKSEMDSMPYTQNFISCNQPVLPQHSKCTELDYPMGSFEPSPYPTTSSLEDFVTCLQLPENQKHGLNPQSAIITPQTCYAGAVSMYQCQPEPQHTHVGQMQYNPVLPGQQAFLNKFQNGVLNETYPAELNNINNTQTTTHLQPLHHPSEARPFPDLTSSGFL
Assay type: cell-based
Description: (§1) AHR binds to Dioxin Responsive Elements (DRE) upstream of genes that it activates. One measure of AHR activity is activation of a reporter gene, such as luciferase, downstream of one or multiple DRE elements. Luciferase activity will reflect activation and inhibition of AHR in the cells expressing this reporter.
(§2) Murine Hepa1-6 or Hepa-1c1c7 or other murine cell line with a DRE-luciferase reporter either stably or transiently transfected are plated in media in plates (96-well, 384-well or other plates) and incubated overnight at 37 C in a CO2 incubator. Likewise, human HepG2 or other human cell line with a DRE-luciferase reporter either stably or transiently transfected are plated in media in plates (96-well, 384-well or other plates) and incubated overnight at 37 C in a CO2 incubator.
(§3) The next day, an AHR agonist compound is added. Cells are incubated for 6, 16 or 24 hours or another time point and then lysed for determination of luciferase activity as a read-out of the AHR activation. Luciferase can be measured with a commercial kit such as the Promega Luciferase kit or any kit or reagents that provide the luciferin substrate for measuring luciferase activity. The level of luciferase with only activating ligand (e.g. such as TCDD, kynurenine, ITE (2-(1H-indole-3-ylcarbonyl)-4-thiazolecarboxylic methyl ester), VAF347, BNF (beta-naphthoflavone), ICZ (6-formylindolo(3,2-b) carbazole or other AHR ligands) added is the maximum signal while the luciferase with no ligand is the minimum signal. EC50s can be determined as the concentration which activates half of the maximum luciferase activity.

| EC50 | SMILES |
| --- | --- |
| < 10 nM | Cc1sc(C(=O)c2c[nH]c3ccccc23)nc1C(=O)OCCOCC[N+](C)(C)C [Compound I-1] |
| 10 to 100 nM | CN(C)C(=O)c1csc(C(=O)c2c[nH]c3ccccc23)n1 [Compound I-3, 2-(1H-Indole-3-carbonyl)-N,N-dimethyl-thiazole-4-carboxamide] |
| 100 to 1000 nM | COC(=O)c1csc(C(=O)c2c[nH]c3cc(OC)ccc23)n1 [Compound I-6] |
| 100 to 1000 nM | CN(CCOCCO)C(=O)c1csc(C(=O)c2c[nH]c3ccccc23)n1 [Compound I-12] |
| 100 to 1000 nM | O=C(NCCOCCO)c1csc(C(=O)c2c[nH]c3ccccc23)n1 [Compound I-13] |
| 100 to 1000 nM | COC(=O)c1nc(C(=O)c2c[nH]c3ccccc23)sc1C [Compound I-14] |
| 100 to 1000 nM | COC(=O)c1nc(C(=O)c2c[nH]c3cccc(C)c23)sc1C [Compound I-15] |
| 100 to 1000 nM | Cc1sc(C(=O)c2c[nH]c3ccccc23)nc1C(=O)NCCOCC[N+](C)(C)C [Compound I-16] |
| 100 to 1000 nM | Cc1sc(C(=O)c2c[nH]c3ccccc23)nc1C(=O)NCCOCCN(C)C [Compound I-17] |
| > 1000 nM | CN(CCO)CCOC(=O)c1csc(C(=O)c2c[nH]c3ccccc23)n1 [Compound I-21] |
| > 1000 nM | C[N+](C)(C)CCOCCNC(=O)c1csc(C(=O)c2c[nH]c3ccccc23)n1 [Compound I-22] |
| > 1000 nM | C[N+](C)(C)CCOCCOC(=O)c1csc(C(=O)c2c[nH]c3ccccc23)n1 [Compound I-24] |
| > 1000 nM | CN1CCN(C(=O)c2csc(C(=O)c3c[nH]c4ccccc34)n2)CC1 [Compound I-25] |
| > 1000 nM | O=C(O)CCOCCNC(=O)c1csc(C(=O)c2c[nH]c3ccccc23)n1 [Compound I-26] |
| > 1000 nM | COC(=O)c1csc(C(=O)n2cnc3ccccc32)n1 [Compound I-27] |
| > 1000 nM | C[N+]1(C)CCN(C(=O)c2csc(C(=O)c3c[nH]c4ccccc34)n2)CC1 [Compound I-28] |
| > 1000 nM | Cc1sc(C(=O)c2c[nH]c3ccccc23)nc1C(=O)NCCOCCO [Compound I-29, N-[2-(2-Hydroxyethoxy)ethyl]-2-(1H-indole-3-carbonyl)-5-methyl-thiazole-4-carboxamide] |
| > 1000 nM | COC(=O)c1cn(C)c(C(=O)c2c[nH]c3ccccc23)n1 [Compound I-30] |
| > 1000 nM | COC(=O)c1nc(C(=O)c2c[nH]c3ccccc23)sc1C(C)C [Compound I-31] |
| > 1000 nM | CC(C)c1sc(C(=O)c2c[nH]c3ccccc23)nc1C(=O)O [Compound I-32] |
| > 1000 nM | COC(=O)c1cnc(C(=O)c2c[nH]c3ccccc23)n1C [Compound I-33] |
| > 1000 nM | CN(C)CCOCCNC(=O)c1csc(C(=O)c2c[nH]c3ccccc23)n1 [Compound I-34, N-[2-[2-(Dimethylamino)ethoxy]ethyl]-2-(1H-indole-3-carbonyl)thiazole-4-carboxamide] |
| > 1000 nM | O=C(c1nc(C(=O)N2CCCCC2)cs1)c1c[nH]c2ccccc12 [Compound I-35, 1H-indol-3-yl-[4-(piperidine-1-carbonyl)thiazol-2-yl]methanone] |
| > 1000 nM | COC(=O)c1c[nH]c(C(=O)c2c[nH]c3ccccc23)n1 [Compound I-36] |

| EC50 | SMILES |
| --- | --- |
| > 1000 nM | O=C(O)COCCNC(=O)c1csc(C(=O)c2c[nH]c3ccccc23)n1 [Compound I-37] |
| > 1000 nM | O=C(O)c1coc(C(=O)c2c[nH]c3ccccc23)n1 [Compound I-38] |
| > 1000 nM | Cn1c(C(=O)O)cnc1C(=O)c1c[nH]c2ccccc12 [Compound I-39] |
| > 1000 nM | Cc1sc(C(=O)c2c[nH]c3ccccc23)nc1C(=O)O [Compound I-40] |
| > 1000 nM | CC(C)(C)OC(=O)NCCOCCNC(=O)c1csc(C(=O)c2c[nH]c3ccccc23)n1 [Compound I-41, tert-Butyl N-[2-[2-[[2-(1H-indole-3-carbonyl)thiazole-4-carbonyl]amino]ethoxy]ethyl]carbamate] |
| > 1000 nM | NCCOCCNC(=O)c1csc(C(=O)c2c[nH]c3ccccc23)n1 [Compound I-42] |
| > 1000 nM | Cn1cc(C(=O)O)nc1C(=O)c1c[nH]c2ccccc12 [Compound I-43] |
| > 1000 nM | COC(=O)c1csc(C(=O)c2c[nH]c3ccc(O)cc23)n1 [Compound I-44] |
| > 1000 nM | COC(=O)c1csc(C(=O)c2c[nH]c3cc(O)ccc23)n1 [Compound I-45] |
| < 10 nM | COC(=O)c1nc(C(=O)c2c[nH]c3ccccc23)sc1C [Compound P-1] |
| 10 to 100 nM | NC(=O)c1csc(C(=O)c2c[nH]c3ccccc23)n1 [Compound P-5] |
| 100 to 1000 nM | O=C(OCCOCCO)c1csc(C(=O)c2c[nH]c3ccccc23)n1 [Compound P-6] |
| 100 to 1000 nM | COC(=O)c1csc(C(=O)c2c[nH]c3ccc(OC)cc23)n1 [Compound P-7] |
| 100 to 1000 nM | COC(=O)c1csc(/C(=N/O)c2c[nH]c3ccccc23)n1 [Compound P-8] |
| 100 to 1000 nM | O=C(OCCO)c1csc(C(=O)c2c[nH]c3ccccc23)n1 [Compound P-9] |
| 100 to 1000 nM | CO/N=C(\c1nc(C(=O)OC)cs1)c1c[nH]c2ccccc12 [Compound P-10] |
| > 1000 nM | CO/N=C(/c1nc(C(=O)OC)cs1)c1c[nH]c2ccccc12 [Compound P-11] |
| > 1000 nM | COC(=O)c1csc(/C(=N\O)c2c[nH]c3ccccc23)n1 [Compound P-13] |
| > 1000 nM | COC(=O)c1csc([C@H](O)c2c[nH]c3ccccc23)n1 [Compound P-14] |
| > 1000 nM | COC(=O)c1csc([C@@H](O)c2c[nH]c3ccccc23)n1 [Compound P-15] |
| > 1000 nM | COC(=O)c1csc(C(=O)c2cn(C)c3ccccc23)n1 [Compound P-16] |
| > 1000 nM | COC(=O)c1csc(C(=O)c2n[nH]c3ccccc23)n1 [Compound P-17] |
| > 1000 nM | COC(=O)c1csc(C(=O)c2c[nH]c3cccnc23)n1 [Compound P-18] |
| > 1000 nM | COC(=O)c1coc(C(=O)c2c[nH]c3ccccc23)n1 [Compound P-19] |

Same assay, conditions: HepG2 cells, agonist mode, Table 3, read-out: DRE-Luc HepG2 - Agonist: Average EC50

| EC50 | SMILES |
| --- | --- |
| < 10 nM | N#Cc1nc(C(=O)c2c[nH]c3ccccc23)sc1N [Compound I-50] |
| < 10 nM | Nc1sc(C(=O)c2c[nH]c3ccccc23)nc1C(F)(F)F [Compound I-51] |
| 10 to 100 nM | O=C(c1nc([C@H]2CC[C@H](O)CC2)cs1)c1c[nH]c2ccccc12 [Compound I-52] |
| < 10 nM | COC(=O)c1nc(C(=O)c2c[nH]c3ccccc23)sc1Br [Compound I-53] |
| < 10 nM | COC(=O)c1nc(C(=O)c2c[nH]c3ccccc23)sc1C(F)(F)F [Compound I-54] |
| < 10 nM | COC(=O)c1nc(C(=O)c2c[nH]c3ccccc23)sc1Cl [Compound I-55] |
| < 10 nM | COC(=O)c1nc(C(=O)c2c[nH]c3ccccc23)sc1N [Compound I-56] |
| < 10 nM | CCc1csc(C(=O)c2c[nH]c3ccccc23)n1 [Compound I-57] |
| 10 to 100 nM | COC(=O)c1ccc2c(C(=O)c3nc(C(C)C)cs3)c[nH]c2c1 [Compound I-58] |
| 100 to 1000 nM | CC(C)c1csc(C(=O)c2c[nH]c3cc(C(=O)O)ccc23)n1 [Compound I-59] |
| < 10 nM | COc1ccc2c(C(=O)c3nc(C(C)(C)C)cs3)c[nH]c2c1 [Compound I-60] |

Each compound was assayed against T2, AHR (Mus musculus, UniProt P30561) (assay: DRE-Luciferase Reporter Assay, Hepa1.6, agonist). Conditions: DRE-Luc Hepa1.6 - Agonist: Average EC50 (μM), Hepa1.6 cells, agonist mode, Table 3.
T2 construct: endogenous in cells; host or cells: Hepa1-6 / Hepa1.6 (murine hepatoma); DRE-luciferase reporter transfected in A3, no transfection in A2
T2 sequence (P30561 10-805 limits assumed): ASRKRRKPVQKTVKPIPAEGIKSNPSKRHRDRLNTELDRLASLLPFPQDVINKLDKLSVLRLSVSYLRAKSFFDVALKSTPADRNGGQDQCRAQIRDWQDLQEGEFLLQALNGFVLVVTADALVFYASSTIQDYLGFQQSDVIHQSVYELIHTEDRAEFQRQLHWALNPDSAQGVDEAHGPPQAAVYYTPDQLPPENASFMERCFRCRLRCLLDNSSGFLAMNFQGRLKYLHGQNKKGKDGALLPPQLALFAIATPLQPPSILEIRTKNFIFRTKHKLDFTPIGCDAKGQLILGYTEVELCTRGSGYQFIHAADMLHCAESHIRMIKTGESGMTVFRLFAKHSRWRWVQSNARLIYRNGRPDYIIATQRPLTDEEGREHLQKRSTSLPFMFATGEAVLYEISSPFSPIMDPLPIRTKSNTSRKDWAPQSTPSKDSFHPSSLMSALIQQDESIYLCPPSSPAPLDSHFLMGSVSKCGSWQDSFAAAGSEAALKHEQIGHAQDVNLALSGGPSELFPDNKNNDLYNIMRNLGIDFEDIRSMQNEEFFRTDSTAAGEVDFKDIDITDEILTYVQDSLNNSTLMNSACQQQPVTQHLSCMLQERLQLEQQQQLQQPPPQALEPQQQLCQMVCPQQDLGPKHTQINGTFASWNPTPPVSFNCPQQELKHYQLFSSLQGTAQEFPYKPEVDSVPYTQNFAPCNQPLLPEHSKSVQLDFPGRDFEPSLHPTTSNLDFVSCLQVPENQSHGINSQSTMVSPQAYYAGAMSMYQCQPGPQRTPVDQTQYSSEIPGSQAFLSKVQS
T2 sequence (P11499 whole entry partner): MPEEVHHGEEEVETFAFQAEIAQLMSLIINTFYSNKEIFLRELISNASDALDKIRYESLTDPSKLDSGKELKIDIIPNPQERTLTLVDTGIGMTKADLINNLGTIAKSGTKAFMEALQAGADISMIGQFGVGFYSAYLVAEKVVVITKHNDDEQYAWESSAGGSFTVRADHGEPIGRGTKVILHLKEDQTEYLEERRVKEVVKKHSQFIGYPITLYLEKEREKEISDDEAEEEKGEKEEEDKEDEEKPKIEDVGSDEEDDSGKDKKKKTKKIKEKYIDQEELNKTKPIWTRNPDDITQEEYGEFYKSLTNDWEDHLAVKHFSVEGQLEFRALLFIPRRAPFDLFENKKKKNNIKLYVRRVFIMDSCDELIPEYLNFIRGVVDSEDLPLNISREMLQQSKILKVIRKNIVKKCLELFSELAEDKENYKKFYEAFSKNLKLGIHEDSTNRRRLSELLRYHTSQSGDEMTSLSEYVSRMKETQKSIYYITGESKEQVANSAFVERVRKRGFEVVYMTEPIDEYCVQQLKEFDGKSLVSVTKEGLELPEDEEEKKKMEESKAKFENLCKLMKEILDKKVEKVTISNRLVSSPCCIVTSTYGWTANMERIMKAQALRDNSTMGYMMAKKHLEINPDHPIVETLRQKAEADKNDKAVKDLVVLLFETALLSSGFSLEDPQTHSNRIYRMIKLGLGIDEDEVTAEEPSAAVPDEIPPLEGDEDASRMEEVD
T2 sequence (O08915 whole entry partner): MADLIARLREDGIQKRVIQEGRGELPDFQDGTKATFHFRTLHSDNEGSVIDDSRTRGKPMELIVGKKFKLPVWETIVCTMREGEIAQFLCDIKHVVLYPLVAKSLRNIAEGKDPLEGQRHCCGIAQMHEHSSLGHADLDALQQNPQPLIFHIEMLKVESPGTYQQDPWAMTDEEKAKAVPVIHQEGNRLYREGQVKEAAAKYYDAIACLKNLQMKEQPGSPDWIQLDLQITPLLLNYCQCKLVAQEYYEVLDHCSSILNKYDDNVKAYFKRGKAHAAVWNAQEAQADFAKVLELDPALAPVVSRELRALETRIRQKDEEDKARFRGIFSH
Assay type: cell-based, murine
Description: as §1, §2, §3

| EC50 | SMILES |
| --- | --- |
| < 0.01 µM | N#Cc1nc(C(=O)c2c[nH]c3ccccc23)sc1N [Compound I-50] |
| < 0.01 µM | Nc1sc(C(=O)c2c[nH]c3ccccc23)nc1C(F)(F)F [Compound I-51] |
| 0.01 to 0.1 µM | COC(=O)c1nc(C(=O)c2c[nH]c3ccccc23)sc1Br [Compound I-53] |
| 0.01 to 0.1 µM | COC(=O)c1nc(C(=O)c2c[nH]c3ccccc23)sc1Cl [Compound I-55] |
| < 0.01 µM | COC(=O)c1nc(C(=O)c2c[nH]c3ccccc23)sc1N [Compound I-56] |
| < 0.01 µM | CCc1csc(C(=O)c2c[nH]c3ccccc23)n1 [Compound I-57] |
| 0.01 to 0.1 µM | COC(=O)c1ccc2c(C(=O)c3nc(C(C)C)cs3)c[nH]c2c1 [Compound I-58] |
| 0.1 to 1 µM | CC(C)c1csc(C(=O)c2c[nH]c3cc(C(=O)O)ccc23)n1 [Compound I-59] |
| < 0.01 µM | COc1ccc2c(C(=O)c3nc(C(C)(C)C)cs3)c[nH]c2c1 [Compound I-60] |

Same assay, conditions: Hepa1.6 cells, agonist mode, Table 3, read-out: DRE-Luc Hepa1.6 - Agonist: Average EC50

| EC50 | SMILES |
| --- | --- |
| > 1 µM | O=C(c1nc([C@H]2CC[C@H](O)CC2)cs1)c1c[nH]c2ccccc12 [Compound I-52] |
| > 1 µM | COC(=O)c1nc(C(=O)c2c[nH]c3ccccc23)sc1C(F)(F)F [Compound I-54] |

Reference: patent publication US20210300912A1 (Ikena Oncology, Inc., priority 2019, published 2021)
